According to ChEMBL document CHEMBL1127006, “QSAR study of benzoquinolinones as inhibitors of human type 1 5--reductase” (Bioorg Med Chem Lett, 1993):

target: T1, 3-oxo-5-alpha-steroid 4-dehydrogenase 1 (Homo sapiens, UniProt P18405); experiment: In vitro inhibitory concentration required to inhibit Steroid 5-alpha-reductase type 1 in cultured Hs 68 human foreskin fibroblast cells; format: cell-based; conditions: read-out: Log 1/IC50 (converted)
T1 sequence (P18405 whole entry): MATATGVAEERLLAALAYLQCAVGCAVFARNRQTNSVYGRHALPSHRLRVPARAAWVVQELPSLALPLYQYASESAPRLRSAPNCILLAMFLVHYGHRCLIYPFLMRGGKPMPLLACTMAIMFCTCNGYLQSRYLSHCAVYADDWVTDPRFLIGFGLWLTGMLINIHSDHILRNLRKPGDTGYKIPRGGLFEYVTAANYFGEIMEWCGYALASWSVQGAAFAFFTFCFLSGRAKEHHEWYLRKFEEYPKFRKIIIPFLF

Compound | IC50 [nM]
Cc1ccc2c(c1)CCC1=C2CCC(=O)N1C | 32.4
CN1C(=O)CCC2(C)c3ccc(F)cc3CCC12 (stereo unspecified) | 115
Cc1ccc2c(c1)CCC1C2CCC(=O)N1C (stereo unspecified) | 32.4
CN1C(=O)CCC2c3ccc(Cl)cc3CCC21 (stereo unspecified) | 7.94
CN1C(=O)CCC2=C1CCc1ccccc12 | 1000
CN1C(=O)CCC2c3ccc(C(F)(F)F)cc3CCC21 (stereo unspecified) | 89.1
COc1ccc2c(c1)CCC1C2CCC(=O)N1C (stereo unspecified) | 115
CN1C(=O)CCC2=C1CCc1cc(Cl)ccc12 | 174
CN1C(=O)CCC2c3ccccc3CCC21 (stereo unspecified) | 562
CN1C(=O)CCC2(C)c3ccc(Cl)cc3CCC12 (stereo unspecified) | 32.4
CN1C(=O)CCC2=C1CCc1cc(Br)ccc12 | 60.3
CN1C(=O)CCC2c3ccc(F)cc3CCC21 (stereo unspecified) | 34.7
CN1C(=O)CCC2=C1CCc1cc(F)ccc12 | 151
CN1C(=O)CCC2c3ccc(Br)cc3CCC21 (stereo unspecified) | 34.7
CN1C(=O)CCC2c3ccc(I)cc3CCC21 (stereo unspecified) | 79.4
CN1C(=O)CCC2(C)c3ccccc3CCC12 (stereo unspecified) | 1000
